Earlier results, collected in US10413528B2, “Methods to inhibit infection during wound healing with topical compositions including amino acids” (priority 2014, dated 2019).

Settings: for maximum aqueous solubility: in water

maximum aqueous solubility | maximum solubility in water | Compound
166.5 mg/mL | – | C[C@H](N)C(=O)O [alanine]
35 mg/mL | – | NC(=O)CC[C@H](N)C(=O)O [glutamine]
41.6 mg/mL | – | N[C@@H](Cc1c[nH]cn1)C(=O)O [histidine]
22.4 mg/mL | 22.4 mg/mL | CC(C)C[C@H](N)C(=O)O [leucine]
53.7 mg/mL | – | CSCC[C@H](N)C(=O)O [methionine]
85 mg/mL | – | CC(C)[C@H](N)C(=O)O [valine]
